Laboratory results reported in patent publication US5776900A, “Hemoregulatory peptides” (SmithKline Beecham Corporation, priority 1995, dated 1998).
Where no end group is shown, it is not given here. [ ]: non-standard residue; d: D form. pGlu = O=C1CC[C@@H](C(=O)O)N1

Tested on: human bone marrow stromal cell line, C6
Test: Induction of colony stimulating activity by stromal cells; CSA of supernatant read in soft agar assay (CFU-C)
Type: cell-based
Conditions: 5% C6 supernatant, Lewis rat bone marrow cells
Experimental: Induction of Colony Stimulating Activity by Stromal Cells
The human bone marrow stromal cell line, C6, is grown to confluency in plastic tissue culture dishes in RPMI-1640 medium and 5% FBS. On the day prior to the experiment this medium is changed to DMEM without added serum. To these cultures, the compounds are added for one hour, then washed from the cultures. The medium is replaced with fresh DMEM and the cells are incubated for 24 hours at 37° C., 5% CO2. After 24 hours the C6 cell culture supernatant is collected, sterile filtered, and frozen until it can be assayed for the presence of hematopoietic colony stimulating activity (CSA) as set forth below.
Bone marrow cells are obtained from Lewis rats. They are adjusted to 10^6 cells/ml in DMEM without serum. A single layer agar system utilizing the following is used: DMEM enriched with nutrients (NaHCO3, pyruvate, amino acids, vitamins, and HEPES buffer); 0.3% Bacto agar, and 20% Lewis rat serum. To this are added dilutions of C6 cell line supernatant (10-2.5%) from above along with rat bone marrow cells (final concentration=10^5 cells/ml). The agar plates are incubated at 37° C., 5% CO2 for 7-8 days. Colonies of proliferating bone marrow cells (CFU-C) are counted utilizing a microscope. The number of agar colonies counted is proportional to the amount of CSA present within the C6 bone marrow stromal cell line supernatant.

“(pGlu-Glu-Asp)2 -Sub-(Lys)2 ([pGlu]ED[Sub]K; not fully specified; printed as (pGlu-Glu-Asp)2 -Sub-(Lys)2; also: dimer via suberoyl-lysine linker) [Example 2]” was tested, and the “Hematopoietic Colony Stimulating Activity Using 5% Supernatant, Percent of Control” value (dose 0.01 ng/ml) was 97% of Control, the “Hematopoietic Colony Stimulating Activity Using 5% Supernatant, Percent of Control” value (dose 0.1 ng/ml) was 154% of Control and the “Hematopoietic Colony Stimulating Activity Using 5% Supernatant, Percent of Control” value (dose 1 ng/ml) was 188% of Control. The “Hematopoietic Colony Stimulating Activity Using 5% Supernatant, Percent of Control” value (dose 10 ng/ml) was 207% of Control, the “Hematopoietic Colony Stimulating Activity Using 5% Supernatant, Percent of Control” value (dose 100 ng/ml) was 241% of Control and the “Hematopoietic Colony Stimulating Activity Using 5% Supernatant, Percent of Control” value (dose 1000 ng/ml) was 192% of Control.
